This note sets out measurements from patent US10800792B2, “Inhibitors of Bruton's tyrosine kinase and method of their use” (JANSSEN PHARMACEUTICA NV, priority 2015, dated 2020).

Chain of unphosphorylated-BTK kinase domain (UP-BTK), GST-tagged human BTK (389-659aa) (Q06187 389-659): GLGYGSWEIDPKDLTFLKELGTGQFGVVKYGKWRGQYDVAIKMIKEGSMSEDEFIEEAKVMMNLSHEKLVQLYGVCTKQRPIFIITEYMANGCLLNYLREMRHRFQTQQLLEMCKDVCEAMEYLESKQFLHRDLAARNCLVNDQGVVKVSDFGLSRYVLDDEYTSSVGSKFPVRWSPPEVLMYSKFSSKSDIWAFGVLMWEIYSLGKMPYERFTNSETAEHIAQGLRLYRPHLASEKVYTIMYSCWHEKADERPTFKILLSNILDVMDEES

The first assay addresses unphosphorylated-BTK kinase domain (UP-BTK), GST-tagged human BTK (389-659aa) (Homo sapiens (Human), UniProt Q06187). Briefly: BTK kinase Lanthascreen binding assay. The note with it: Lanthascreen tracer competition, 60 minutes incubation; pIC50 = negative log of the IC50 in molar. The gist of the method: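 Values are pIC50, i.e. negative log of IC50 in molar, derived from concentration–response fitting. Each compound competes with a fluorescently labelled tracer for the unphosphorylated kinase domain.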
(In general: Time-resolved FRET reads energy transfer from a long-lived donor to a nearby acceptor.)
`Cc1cc(C(=O)Nc2cc(C(F)(F)F)ccn2)ccc1N1C(=O)Nc2c(C(=O)N[C@@H]3CCCN(C(=O)/C(C#N)=C/C4CC4)C3)sc3nccc1c23` [Example 835, (R,E)-N-(1-(2-Cyano-3-cyclopropylacryloyl)piperidin-3-yl)-5-(2-methyl-4-((4-(trifluoromethyl)pyridin-2-yl)carbamoyl)phenyl)-4-oxo-4,5-dihydro-3H-1-thia-3,5,8-triazaacenaphthylene-2-carboxamide]: the “BTK_I_binding pIC50” value was found to be 8.0.
With `N#C/C(=C\C1CC1)C(=O)N1CCC[C@@H](NC(=O)c2sc3nccc4c3c2NC(=O)N4c2ccc(C(=O)Nc3cc(C(F)(F)F)ccn3)cc2F)C1` [Example 836, (R,E)-N-(1-(2-Cyano-3-cyclopropylacryloyl)piperidin-3-yl)-5-(2-fluoro-4-((4-(trifluoromethyl)pyridin-2-yl)carbamoyl)phenyl)-4-oxo-4,5-dihydro-3H-1-thia-3,5,8-triazaacenaphthylene-2-carboxamide], the “BTK_I_binding pIC50” value amounted to 7.9.
On to `Cc1cc(Oc2ccccc2)ccc1N1C(=O)Nc2c(C(=O)N[C@@H]3CCN(C#N)C3)sc3nccc1c23` [Example 837, (R)—N-(1-Cyanopyrrolidin-3-yl)-5-(2-methyl-4-phenoxyphenyl)-4-oxo-4,5-dihydro-3H-1-thia-3,5,8-triazaacenaphthylene-2-carboxamide], for which the “BTK_I_binding pIC50” value was determined as 7.9.
In the case of `Cc1cc(Oc2ccccc2)ccc1N1C(=O)Nc2c(C(=O)N[C@@H]3CCN(C(=O)CC#N)C3)sc3nccc1c23` [Example 838, (R)—N-(1-(2-Cyanoacetyl)pyrrolidin-3-yl)-5-(2-methyl-4-phenoxyphenyl)-4-oxo-4,5-dihydro-3H-1-thia-3,5,8-triazaacenaphthylene-2-carboxamide], the “BTK_I_binding pIC50” value came out at 7.9.
On to `N#C/C(=C\C1CC1)C(=O)N1CCC[C@@H](NC(=O)c2sc3nccc4c3c2NC(=O)N4c2cccc(Oc3ccccc3)c2)C1` [Example 840, (R,E)-N-(1-(2-Cyano-3-cyclopropylacryloyl)piperidin-3-yl)-4-oxo-5-(3-phenoxyphenyl)-4,5-dihydro-3H-1-thia-3,5,8-triazaacenaphthylene-2-carboxamide], for which the “BTK_I_binding pIC50” value is 7.8.
Still for that read-out and setting: for `COCCC(=O)N1CCC[C@@H](NC(=O)c2sc3nccc4c3c2NC(=O)N4c2ccc(Oc3ccccc3)cc2C)C1` [Example 841, (R)—N-(1-(3-Methoxypropanoyl)piperidin-3-yl)-5-(2-methyl-4-phenoxyphenyl)-4-oxo-4,5-dihydro-3H-1-thia-3,5,8-triazaacenaphthylene-2-carboxamide] the value was 7.7; for `C=CC(=O)N1CCC[C@@H](NC(=O)c2sc3nccc4c3c2NC(=O)N4c2cc(-c3cccc(F)c3F)ccc2C)C1` [Example 842, (R)—N-(1-Acryloylpiperidin-3-yl)-5-(2′,3′-difluoro-4-methyl-[1,1′-biphenyl]-3-yl)-4-oxo-4,5-dihydro-3H-1-thia-3,5,8-triazaacenaphthylene-2-carboxamide], 7.7; for `CCC(=O)N1CC[C@@H](NC(=O)c2sc3nccc4c3c2NC(=O)N4c2ccc(Oc3ccccc3)cc2C)C1` [Example 843, (R)-5-(2-Methyl-4-phenoxyphenyl)-4-oxo-N-(1-propionylpyrrolidin-3-yl)-4,5-dihydro-3H-1-thia-3,5,8-triazaacenaphthylene-2-carboxamide], 7.6.
`Cc1cc(Oc2ccccc2)ccc1N1C(=O)Nc2c(C(=O)N[C@@H]3CCN(C(=O)/C(C#N)=C/C4CC4)C3)sc3nccc1c23` [Example 844, (R,E)-N-(1-(2-Cyano-3-cyclopropylacryloyl)pyrrolidin-3-yl)-5-(2-methyl-4-phenoxyphenyl)-4-oxo-4,5-dihydro-3H-1-thia-3,5,8-triazaacenaphthylene-2-carboxamide]: the “BTK_I_binding pIC50” value is listed as 7.6.
Turning to `C=CC(=O)N1CCC[C@@H](NC(=O)c2sc3nccc4c3c2NC(=O)N4c2ccc(Oc3ccccn3)cc2)C1` [Example 846, (R)—N-(1-Acryloylpiperidin-3-yl)-4-oxo-5-(4-(pyridin-2-yloxy)phenyl)-4,5-dihydro-3H-1-thia-3,5,8-triazaacenaphthylene-2-carboxamide], the “BTK_I_binding pIC50” value was found to be 7.6.
In the case of `C=CC(=O)N1CC[C@@H](NC(=O)c2sc3nccc4c3c2NC(=O)N4c2ccc(Oc3cccc(COc4ccccc4C#N)c3)cc2C)C1` [Example 847, (R)—N-(1-Acryloylpyrrolidin-3-yl)-5-(4-(3-((2-cyanophenoxy)methyl)phenoxy)-2-methylphenyl)-4-oxo-4,5-dihydro-3H-1-thia-3,5,8-triazaacenaphthylene-2-carboxamide], the “BTK_I_binding pIC50” value came to 7.6.
As for `CN[C@H](C)C(=O)N1CCC[C@@H](NC(=O)c2sc3nccc4c3c2NC(=O)N4c2ccc(Oc3ccccc3)cc2C)C1` [Example 848, 5-(2-Methyl-4-phenoxyphenyl)-N—((R)-1-((R)-2-(methylamino)propanol)piperidin-3-yl)-4-oxo-4,5-dihydro-3H-1-thia-3,5,8-triazaacenaphthylene-2-carboxamide], the “BTK_I_binding pIC50” value was determined as 7.6.
Same read-out and setting: for `Cc1cc(Oc2ccccc2)ccc1N1C(=O)Nc2c(C(=O)N[C@@H]3CCCN(C(=O)[C@H]4CCN4)C3)sc3nccc1c23` [Example 849, N—((R)-1-((R)-Azetidine-2-carbonyl)piperidin-3-yl)-5-(2-methyl-4-phenoxyphenyl)-4-oxo-4,5-dihydro-3H-1-thia-3,5,8-triazaacenaphthylene-2-carboxamide] the value was 7.6; for `Cc1cc(Oc2ccccc2)ccc1N1C(=O)Nc2c(C(=O)N[C@@H]3CCCN(C(=O)/C(C#N)=C/C4CC4)C3)sc3nccc1c23` [Example 850, (R,E)-N-(1-(2-Cano-3-cyclopropylacryloyl)piperidin-3-yl)-5-(2-methyl-4-phenoxyphenyl)-4-oxo-4,5-dihydro-3H-1-thia-3,5,8-triazaacenaphthylene-2-carboxamide], 7.6; for `N#C/C(=C\C1CC1)C(=O)N1CCCC(NC(=O)c2sc3nccc4c3c2NC(=O)N4c2cccc(Oc3ccccc3)c2)C1` (stereo not drawn) [Example 851, (E)-N-(1-(2-Cyano-3-cyclopropylacryloyl)piperidin-3-yl)-4-oxo-5-(3-phenoxyphenyl)-4,5-dihydro-3H-1-thia-3,5,8-triazaacenaphthylene-2-carboxamide], 7.5.
For the molecule `CN[C@@H](C)C(=O)N1CCC[C@@H](NC(=O)c2sc3nccc4c3c2NC(=O)N4c2ccc(Oc3ccccc3)cc2C)C1` [Example 853, 5-(2-Methyl-4-phenoxyphenyl)-N—((R)-1-((S)-2-(methylamino)propanol)piperidin-3-yl)-4-oxo-4,5-dihydro-3H-1-thia-3,5,8-triazaacenaphthylene-2-carboxamide], the “BTK_I_binding pIC50” value was 7.5.
Same read-out and setting: for `Cc1ccccc1N1C(=O)Nc2c(C(=O)N[C@@H]3CCCN(C(=O)/C(C#N)=C/C4CC4)C3)sc3nccc1c23` [Example 854, (R,E)-N-(1-(2-Cyano-3-cyclopropylacryloyl)piperidin-3-yl)-4-oxo-5-(o-tolyl)-4,5-dihydro-3H-1-thia-3,5,8-triazaacenaphthylene-2-carboxamide] the value was 7.5; for `Cc1cc(Oc2cccc(COc3ccccc3C#N)c2)ccc1N1C(=O)Nc2c(C(=O)NC3CCN(C)CC3)sc3nccc1c23` [Example 855, 5-(4-(3-((2-Cyanophenoxy)methyl)phenoxy)-2-methylphenyl)-N-(1-methylpiperidin-4-yl)-4-oxo-4,5-dihydro-3H-1-thia-3,5,8-triazaacenaphthylene-2-carboxamide], 7.5; for `COc1ccccc1Oc1ccc(N2C(=O)Nc3c(C(=O)NC4CCCN(C(=O)/C(C#N)=C/C5CC5)C4)sc4nccc2c34)c(C)c1` (stereo not drawn) [Example 856, (E)-N-(1-(2-Cyano-3-cyclopropylacryloyl)piperidin-3-yl)-5-(4-(2-methoxyphenoxy)-2-methylphenyl)-4-oxo-4,5-dihydro-3H-1-thia-3,5,8-triazaacenaphthylene-2-carboxamide], 7.5.
With `Cc1cc(Oc2cccc(COc3ccccc3C#N)c2)ccc1N1C(=O)Nc2c(C(=O)NC3CCNCC3)sc3nccc1c23` [Example 857, 5-(4-(3-((2-Cyanophenoxy)methyl)phenoxy)-2-methylphenyl)-4-oxo-N-(piperidin-4-yl)-4,5-dihydro-3H-1-thia-3,5,8-triazaacenaphthylene-2-carboxamide], the “BTK_I_binding pIC50” value was 7.5.
With `Cc1cc(Oc2ccccc2)ccc1N1C(=O)Nc2c(C(=O)NC3CCN(C)CC3)sc3nccc1c23` [Example 858, 5-(2-Methyl-4-phenoxyphenyl)-N-(1-methylpiperidin-4-yl)-4-oxo-4,5-dihydro-3H-1-thia-3,5,8-triazaacenaphthylene-2-carboxamide], the “BTK_I_binding pIC50” value was 7.5.
As for `Cc1ccc(Oc2ccccc2)cc1N1C(=O)Nc2c(C(=O)N[C@@H]3CCCN(C(=O)/C(C#N)=C/C4CC4)C3)sc3nccc1c23` [Example 859, (R,E)-N-(1-(2-Cyano-3-cyclopropylacryloyl)piperidin-3-yl)-5-(2-methyl-5-phenoxyphenyl)-4-oxo-4,5-dihydro-3H-1-thia-3,5,8-triazaacenaphthylene-2-carboxamide], the “BTK_I_binding pIC50” value worked out at 7.4.

The assay is the same for the next values; noted with them: Lanthascreen tracer competition, 60 minutes incubation; pIC50 = negative log of the IC50 in molar; read-out: BTK_I_binding pIC50 (converted).
With `C=CC(=O)N1CCC[C@@H](NC(=O)c2sc3nccc4c3c2NC(=O)N4c2ccc(Oc3ccccc3)cc2C)C1` [Example 839, (R)—N-(1-Acryloylpiperidin-3-yl)-5-(2-methyl-4-phenoxyphenyl)-4-oxo-4,5-dihydro-3H-1-thia-3,5,8-triazaacenaphthylene-2-carboxamide], the IC50 is 12.6 nM.
As for `Cc1cc(Oc2ccccc2)ccc1N1C(=O)Nc2c(C(=O)N[C@@H]3CCCN(C#N)C3)sc3nccc1c23` [Example 852, (R)—N-(1-Cyanopiperidin-3-yl)-5-(2-methyl-4-phenoxyphenyl)-4-oxo-4,5-dihydro-3H-1-thia-3,5,8-triazaacenaphthylene-2-carboxamide], the IC50 was 31.6 nM.
